Laboratory results reported in US8592466B2, “Methods for treating conditions caused by higher-than-normal dopaminergic activity in basal ganglia” (Neuropill, Inc., priority 2008, dated 2013).
≈ marks a conversion by molar mass, not a printed value. Where two headings read alike, the source gives them in different places.

How the values were obtained:
[1] = Solubility in organic solvents and aqueous media; assay type: physicochemical
[2] = RPR 102681 plasma concentration by LC/MS/MS; assay type: in vivo, humans; settings: for concentration at 95 min / concentration at 215 min: human, plasma, read-out: mean plasma concentration (3-day average); for concentration at 95 min: 95 minutes post dose; for concentration at 215 min: 215 minutes post dose
Procedure: […] Pharmacokinetics (peak and trough levels) of RPR 102681 during treatment at a dose of 200 mg (day 13), 400 mg (day 20) and 800 mg (day 27) b.i.d. were determined.
The plasma concentration of RPR 102681 was determined with a validated liquid chromatography assay with mass spectrometric detection (LC/MS/MS) at the Department of Biopharmaceutical Sciences, University of California, San Francisco, Calif.
The sample plasma specimens for determining plasma concentration (354 RPR 102681 plasma specimens and 109 Prolactin plasma specimens) were frozen and packed in dry ice upon receipt by the Analytical Division/Drug Studies Unit at South San Francisco, Calif. These samples were kept frozen at approximately −20° C. until analyzed.
Human plasma samples (0.100 mL) were analyzed for RPR 102681 with an LC/MS/MS procedure utilizing a PE Sciex III system equipped with a BDS Hypersil C18 column (4.6×15 mm, 5 μm particle size), a mobile system consisting of acetonitrile:water:trifluoroacetic acid (70:30:0.06) (v/v) with 0.0006% (w/v) ammonium phosphate dibasic; mass spectrometric detection was accomplished with a sample inlet, heated nebulizer, positive ionization by Atmospheric Pressure Chemical Ionization (APCI) and mass scanning by Multiple Reaction Monitoring (MRM) analysis. Sample preparation consisted of precipitation of 0.100 mL of plasma with acetonitrile containing the internal standard (prednisolone acetate) prior to separation by LC/MS/MS. The linear range of the assay was 1.0 to 160 ng/mL, with a lower limit of quantitation of 1.0 ng/mL.
Standard curve and quality control (QC) samples were generated by spiking interference free human plasma samples with known amounts of RPR 102681 and internal standard (IS). These standard curve, assay, and QC samples were processed, then 40 μl aliquots were injected into the LC/MS/MS system for chromatographic separation and subsequent mass spectrometric detection. The peak area ratios of RPR 102681 to IS were calculated for each sample from the measured peak areas obtained by LC/MS/MS. Finally, spiked concentrations and RPR 102681 to IS peak area ratios of the standard curve samples were fit by 1/x weighted least squares linear regression to the equation for the best straight line (y=mx+b, where y=peak area ratio and x=RPR 102681 concentration), and drug concentration in assay sample were calculated by the equation from the RPR 102681 to IS peak area ratios obtained by LC/MS/MS.

[3] = 12 healthy adult human subjects; most events, except for one subject; cited from earlier work
[4] = Phase I cocaine interaction study: 12-lead ECG; assay type: in vivo, humans
Procedure: Changes in ECG readings during saline infusion as compared to those taken during cocaine infusions were also reported.
A 12 Lead ECG was scheduled at Pre-Intake Screening, Intake Screening, Discharge and follow-up all of which are non-infusion days. […] All subjects completed the non-infusion ECG's at baseline and discharge.
To evaluate subjects' responses to cocaine infusion, measurements after cocaine 40 mg infusion were compared to those prior to any infusion (reading at −10 min). Readings at 4 min and 40 min were used when the first infusion was cocaine while readings at 64 min and 100 min were used when the second infusion was cocaine. […] The RPR 102681 group also had decreased RR and QT duration from baseline at 40 min post cocaine infusion on day 15. In the placebo group, some scattered significant decreases from baseline were observed including PR duration at 4 min post cocaine on day 8 and RR duration at 4 min post cocaine on day 8 and 15. […] However, the statistical significance might not hold if multiplicity adjustment was performed in these multiple comparisons.

[5] = Cocaine and BE pharmacokinetics under RPR 102681 treatment; settings: post-treatment RPR 102681 doses vs baseline
[6] = tested on: dopamine release in the ventral striatum; settings: animal data, cited from earlier work

For CC(C(=O)O)c1cccc(NC(=O)NCC(=O)N2C(C(=O)OC(C)(C)C)CSC2c2ccccc2F)c1 [RPR 102681, (2S)-2-{3-[3-({[(2R,4R)-4-tert-Butoxycarbonyl-2-(2-fluorophenyl)]-3-thiazolidinyl}carbonylmethyl)ureido]phenyl}propionic acid], the solubility ([1]; acetone, organic solvent or mixture) was 250 mg/mL (≈ 470 mM), the solubility ([1]; aqueous media, aqueous buffer, pH less than 6) was less than 1 mg/mL and the solubility ([1]; diethyl ether, organic solvent or mixture) was 100 mg/mL (≈ 188 mM). It also gave a solubility ([1]; dimethylformamide, organic solvent or mixture, dimenthylformamide) of 1000 mg/mL (≈ 1880 mM), a solubility ([1]; ethanol, organic solvent or mixture) of 1000 mg/mL (≈ 1880 mM) and a solubility ([1]; ethyl acetate, organic solvent or mixture) of 400 mg/mL (≈ 752 mM). The solubility ([1]; methylene chloride, organic solvent or mixture) was 500 mg/mL (≈ 941 mM), the solubility ([1]; sodium phosphate, pH 7.4, aqueous buffer) was 20 mg/mL (≈ 37.6 mM) and the solubility ([1]; toluene, organic solvent or mixture) was 100 mg/mL (≈ 188 mM). For the same compound, the solubility ([1]; water) was 0.1 mg/mL (≈ 0.188 mM), the “mean plasma concentration at 2-3.5 hours relative to 8-11 hours” value ([2]; 200 mg dose) was “approximately 19 times” and the “mean plasma concentration at 2-3.5 hours relative to 8-11 hours” value ([2]; 400 mg dose) was roughly 15 times. The “dose-proportionality of plasma concentration” value ([2]; 400 mg to 800 mg dose range, 95 and 215 minutes post-dose) was “Severe deviation from dose-proportionality”, the “mean plasma concentration at 2-3.5 hours relative to 8-11 hours” value ([2]; 800 mg dose) was roughly 8 times and the “least-squares mean of dose-normalized concentration” value ([2]; 95 minutes post-dose, day 13, 200 mg) was 1.26 ng/mL. For the same compound, the “least-squares mean of dose-normalized concentration” value ([2]; 95 minutes post-dose, day 14, 200 mg) was 1.12 ng/mL, the “least-squares mean of dose-normalized concentration” value ([2]; 95 minutes post-dose, day 15, 200 mg) was 1.25 ng/mL and the “least-squares mean of dose-normalized concentration” value ([2]; 95 minutes post-dose, day 20, 400 mg) was 1.36 ng/mL. The “least-squares mean of dose-normalized concentration” value ([2]; 95 minutes post-dose, day 21, 400 mg) was 0.87 ng/mL, the “least-squares mean of dose-normalized concentration” value ([2]; 95 minutes post-dose, day 22, 400 mg) was 1.05 ng/mL and the “least-squares mean of dose-normalized concentration” value ([2]; 95 minutes post-dose, day 27, 800 m) was 0.78 ng/mL. The “least-squares mean of dose-normalized concentration” value ([2]; 95 minutes post-dose, day 28, 800 m) was 0.58 ng/mL, the “least-squares mean of dose-normalized concentration” value ([2]; 95 minutes post-dose, day 29, 800 m) was 0.43 ng/mL and the “least-squares mean of dose-normalized concentration” value ([2]; 215 minutes after dose, day 13, 200 mg) was 0.70 ng/mL. For the same compound, the “least-squares mean of dose-normalized concentration” value ([2]; 215 minutes after dose, day 14, 200 mg) was 0.78 ng/mL, the “least-squares mean of dose-normalized concentration” value ([2]; 215 minutes after dose, day 15, 200 mg) was 0.62 ng/mL and the “least-squares mean of dose-normalized concentration” value ([2]; 215 minutes after dose, day 20, 400 mg) was 0.58 ng/mL. For the same compound, the “least-squares mean of dose-normalized concentration” value ([2]; 215 minutes after dose, day 21, 400 mg) was 0.54 ng/mL, the “least-squares mean of dose-normalized concentration” value ([2]; 215 minutes after dose, day 22, 400 mg) was 0.66 ng/mL and the “least-squares mean of dose-normalized concentration” value ([2]; 215 minutes after dose, day 27, 800 mg) was 0.42 ng/mL. For the same compound, the “least-squares mean of dose-normalized concentration” value ([2]; 215 minutes after dose, day 28, 800 mg) was 0.39 ng/mL, the “least-squares mean of dose-normalized concentration” value ([2]; 215 minutes after dose, day 29, 800 mg) was 0.33 ng/mL and the concentration at 95 min ([2]; 200 mg b.i.d. oral) was 242 ng/mL. It also gave a concentration at 95 min ([2]; 400 mg b.i.d. oral) of 422 ng/mL, a concentration at 95 min ([2]; 800 mg b.i.d. oral) of 441 ng/mL and a concentration at 215 min ([2]; 200 mg b.i.d. oral) of 140 ng/mL. For the same compound, the concentration at 215 min ([2]; 400 mg b.i.d. oral) was 255 ng/mL, the concentration at 215 min ([2]; 800 mg b.i.d. oral) was 285 ng/mL and the “severity of adverse events and treatment-associated adverse events” value [3] was “mild or moderate”. The “PR/RR/QT duration following cocaine infusion vs pre infusion” value ([4]; cocaine 40 mg infusion) was “seemed to decrease”, the “clinical significance of PR/RR/QT changes” value ([4]; cocaine 40 mg infusion) was “not clinically significant” and the “pre infusion RR and QT duration vs intake screening” value ([4]; days 8, 15, 22, 29) was “No significant difference”. The “pre infusion PR duration vs intake screening” value ([4]; days 8, 15, 22, 29, Signed Rank Test) was “significantly longer”, the “ECG mean values for VR, PR, QT, RR and QRS” value ([4]; non-infusion days) was “within normal range” and the “cocaine and BE pharmacokinetic parameters, difference from baseline” value [5] was “No statistically significant differences”. The “dopamine release in the ventral striatum (microdialysis)” value ([6]; intraperitoneal administration) was “stimulates dopamine release” and the “release of dopamine compared to baseline values” ([6]; intraperitoneal, highest dose tested 20 mg/Kg) was “almost tripled”.
